Reference: patent US20080255217A1, “PREVENTIVE OR THERAPEUTIC AGENT FOR CARDIAC DYSFUNCTION OR MYOCARDIAL INJURY CAUSED BY ISCHEMIA OR ISCHEMIA REPERFUSION” (SANWA KAGAKU KENKYUSHO CO., LTD., priority 2005, published 2008)

Tests used:
[1] = tested on: hearts of human aldose reductase (AR) transgenic mice (hAR-TG); assay: Isolated heart (Langendorff) ischemia-reperfusion, hAR-TG mice; parameters: species or system mouse; details: for increase in LVEDP: FIG. 5; for reduction in +dP/dt max: FIG. 6; for release of CK into a perfusion solution: FIG. 7; for decrease in a myocardial ATP content: after 60 minutes reperfusion, FIG. 8
Description: In the present invention, not only wild-type mice, but also human aldose reductase (AR) transgenic mice (hAR-TG) which was produced so as to overexpress human-type AR genetically in a mouse, were used for predicting effectiveness in humans which is significant for the development of such a therapeutic agent. As a control for comparison with SNK-860, epalrestat and zopolrestat were used.
(§1) In an experimental test, hearts of 7 to 9 week-old wild-type mice (BDF-1) and hAR-TG were used. From these mice, hearts were isolated under anesthesia of pentobarbital 50 mg/kg i.p., and were placed in ice-cold saline. The isolated hearts were perfused for 20 minutes at a perfusion pressure of 70 mmHg with the Langendorff apparatus (Model IH-1 Type 844, HUGO SACHS ELEKTRONIK, Germany), and was stabilized. Thereafter, after perfusion for 30 minutes under heart function measurement, perfusion solution was completely stopped for 30 minutes, and reperfusion was performed for further 60 minutes, thereby, ischemia-ischemia reperfusion loading was performed. As perfusion solution, Krebs-Henseleit (KH) buffer containing 5.55 mM glucose and 2 mM Na-pyruvate was used. Cardiac performance was assessed by a left ventricular end-diastolic pressure (LVEDP) and peak first derivative of left ventricular systolic pressure (+dP/dt max). These were measured with a pressure transducer connected with a balloon inserted into a left ventricle in condition of hearts paced at 3 volt, 420 beats/min with an electrode placed on the top of a right ventricle, and data thereof were calculated with a four cannel recording device (OMUNIACE RT-3300, NEC, Japan). An AR inhibitor was added to the perfusion solution for 10 minutes from 15 minutes before global ischemia initiation as shown in FIG. 1. Each inhibitor (1 μM SNK-860: SNK, 1-10 μM zopolrestat: ZOP, 10 μM epalrestat: EPA) was dissolved in DMSO, and a DMSO final concentration in a perfusion solution was adjusted to 0.05%. DMSO of the same concentration was also added to a perfusion solution of a control experiment. Cardiomyocytes injury was determined using as an index the release of total creatinine kinase (CK) for 60-min reperfusion, and a myocardial ATP content after 60 minutes reperfusion was determined by the bioluminescence method (Sigma-Aldrich, St. Louis, Mo.) using luciferase, respectively.
For hAR-TG mice, littermates (LM: hAR non-expression litter mouse) were used as control mice without drug treatment.

aldose reductase = aldose reductase (Homo sapiens, UniProt P15121); assay: Aldose reductase inhibitory activity; assay type: biochemical; details: background statement
[2] = tested on: hearts of wild-type mice (BDF-1); assay: Isolated heart (Langendorff) ischemia-reperfusion, wild-type mice; parameters: species or system mouse; details: for deterioration of the cardiac performance and destruction of cardiac muscle due to an ischemia reperfusion injury in a heart: discussion summary of wild-type and hAR-TG results; for increase of left ventricular end-diastolic pressure (LVEDP) after ischemia reperfusion: 1 μM in perfusion solution, FIG. 2; for release of CK from cardiomyocytes: 60-min reperfusion, FIG. 4
Experimental: as §1

[3] = drug development ceased; cited from earlier work
[4] = tested on: diabetic cardiomyopathy patients; details: Johnson B F: Diabetes Care 27,448, 2004; cited from earlier work
[5] = wild-type mice, isolated heart, 1 μM

SMILES | increase in LVEDP ([1]; 1 μM) | reduction in +dP/dt max ([1]; 1 μM) | release of CK into a perfusion solution ([1]; 1 μM) | decrease in a myocardial ATP content ([1]; 1 μM) | aldose reductase inhibitory activity (aldose reductase) | deterioration of the cardiac performance and destruction of cardiac muscle due to an ischemia reperfusion injury in a heart ([2]; lower concentration, non-diabetic state) | increase of left ventricular end-diastolic pressure (LVEDP) after ischemia reperfusion ([2]; wild-type mice, isolated heart) | reduction in peak first derivative of left ventricular systolic pressure (+dP/dt max) immediately after reperfusion ([2]; wild-type mice, isolated heart, 1 μM, FIG. 3) | release of CK from cardiomyocytes [2, 5] | increase in LVEDP ([1]; 10 μM) | reduction in +dP/dt max ([1]; 10 μM) | release of CK into a perfusion solution ([1]; 10 μM) | decrease in a myocardial ATP content ([1]; 10 μM) | manifestation of side effects [3] | cardiac performance of diabetic cardiomyopathy patients [4] | deterioration of the cardiac performance and destruction of cardiac muscle due to an ischemia reperfusion injury in a heart ([2]; high concentration)
NC(=O)[C@@H]1C[C@]2(NC(=O)NC2=O)c2cc(F)ccc2O1 [SNK-860, (2S,4S)-6-fluoro-2′,5′-dioxospiro[chroman-4,4′-imidazolidine]-2-carboxamide] | significant improvement | significant improvement | equivalent improvement effect to that of the 10 μM epalrestat-addition group | equivalent improvement effect to that of the 10 μM epalrestat-addition group | strong aldose reductase inhibitory activity | completely inhibited | significantly improved | the most remarkable effect | significant reduction |  |  |  |  |  |  | 
O=C(O)Cc1nn(Cc2nc3cc(C(F)(F)F)ccc3s2)c(=O)c2ccccc12 [zopolrestat] |  |  |  |  |  |  | significantly improved |  | no effect | significant improvement | significant improvement | significant improvement was not observed | significant improvement was not observed | hepatic disorders | improves the cardiac performance | only the partial effect
